Literature values in patent US12336993B2, “Therapeutic benefit of suboptimally administered chemical compounds” (priority 2013, dated 2025).

What was measured:
[1] = system: chronic lymphocytic leukemia; conditions: literature reports (Kennedy & Theologides 1961; Kennedy et al. 1999)
[2] = system: Hodgkin's lymphoma; conditions: literature reports (Gold et al. 1970; Kennedy et al. 1999)
[3] = system: non-Hodgkin's lymphoma; conditions: literature report (Kennedy et al. 1999)
[4] = system: DNA; conditions: guanine-N7 alkylation of DNA
[5] = target: glycogen synthase kinase-33 (GSK-30) (Homo sapiens, UniProt P49841)
Chain of glycogen synthase kinase-33 (GSK-30) (P49841 whole entry): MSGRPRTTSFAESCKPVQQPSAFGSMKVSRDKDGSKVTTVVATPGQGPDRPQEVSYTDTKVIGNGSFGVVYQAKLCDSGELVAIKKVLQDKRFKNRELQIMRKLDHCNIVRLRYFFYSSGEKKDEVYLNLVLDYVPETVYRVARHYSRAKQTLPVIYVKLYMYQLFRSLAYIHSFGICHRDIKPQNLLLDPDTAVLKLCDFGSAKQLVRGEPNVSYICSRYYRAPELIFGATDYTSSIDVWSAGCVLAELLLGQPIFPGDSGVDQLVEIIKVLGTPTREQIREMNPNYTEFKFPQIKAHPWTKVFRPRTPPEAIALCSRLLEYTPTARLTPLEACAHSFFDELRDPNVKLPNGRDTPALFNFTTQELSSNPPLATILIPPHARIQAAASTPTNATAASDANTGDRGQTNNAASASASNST

Row | SMILES | activity in chronic lymphocytic leukemia [1] | activity in Hodgkin's lymphoma [2] | activity in non-Hodgkin's lymphoma [3] | sequence preferences to alkylate [4] | concentration at which inhibition of GSK is promoted [5] [nM]
1 | O=c1[nH]cc(N(CCCl)CCCl)c(=O)[nH]1 [uracil mustard, 5-[bis(2-chloroethyl)amino]-1H-pyrimidine-2,4-dione] | active | active | active | 5′-YGC-3′ | 
2 | CN1C(=O)/C(=C2/C(=O)Nc3ccccc32)c2ccccc21 [meisoindigo] |  |  |  |  | 5 to 50
